US20220296618A1, “ANTI-INFLAMMATORY COMPOUNDS FOR USE IN THE TREATMENT OF DERMAL DISORDERS” (COUNCIL OF SCIENTIFIC & INDUSTRIAL RESEARCH, priority 2019, published 2022)

How the values were obtained:
[1] = test system: wound on the dorsal skin of non-diabetic C57 mice; test: Wound healing (1 cm^2 punch biopsy wound) in non-diabetic C57BL/6j mice, topical cream; format: in vivo; conditions: topical once daily for 12 days; for Wound healing observed animals in a group: 5 animals in the group
From the text: Method: In this study, C57BL/6j mice strain (age: 12 weeks) were used for studying the wound healing process. A 1 cm^2 wound was made using a punch biopsy on the dorsal side of the C57 mice. The animals were divided into 5 groups consisting of 5 animals in each group as follows: • Group 6 (n=5): treated with vehicle alone (Non-Diabetic Control Group). • Group 7 (n=5) treated with Compound 2 (2.5%) prepared in the vehicle. • Group 8 (n=5): treated with Compound 1 (0.625%) prepared in the vehicle. • Group 9 (n=5) treated with Compound 1 (1.25%) prepared in the vehicle. • Group 10 (n=5) treated with Compound 1 (2.5%) prepared in the vehicle. Three concentrations of Compound 1, i.e. 0.625%, 1.25%, and 2.5%, prepared in the vehicle were tested in this study. The topical preparations were applied on the wound once daily for 12 days starting 12 hours after the wound was created. Images of the wound area were visualized, and measurements of area were recorded on each day of the study.

[2] = test system: hepatic enzyme markers ALT and AST; conditions: intraperitoneally prior to treatment with t-butyl hydroperoxide; cited from earlier work
[3] = test system: wound on the dorsal skin of diabetic (db/db) mice; test: Diabetic wound healing (1 cm^2 punch biopsy wound) in db/db mice, topical cream; format: in vivo; conditions: for Wound healing observed animals in a group on day 10 / % of Wound healing: topical once daily; for Wound healing observed animals in a group on day 10: 5 animals in the group; for % of Wound healing: day 10
From the text: Method: In this study, mice of db/db strain (age: 13-14 weeks) were used as this strain is more analogous to diabetic wound healing in humans. A 1 cm^2 wound was made using a punch biopsy on the dorsal side of the db/db mice under local anesthetic conditions. The animals were divided into 5 groups with 5 animals in each group as follows: • Group 1 (n=5): treated with vehicle alone (Diabetic Control Group). • Group 2 (n=5) treated with Compound 2 (2.5%) prepared in the vehicle. • Group 3 (n=5): treated with Compound 1 (0.625%) prepared in the vehicle. • Group 4 (n=5) treated with Compound 1 (1.25%) prepared in the vehicle. • Group 5 (n=5) treated with Compound 1 (2.5%) prepared in the vehicle. Three concentrations of Compound 1, i.e. 0.625%, 1.25%, and 2.5%, were tested for this study. The topical preparations were applied on the wound once daily for 12 days. Images of the wound area were visualized, and measurements of the wound area were recorded on each day of the study.

[4] = test system: mice skin tissues; test: Tensile strength of skin tissues on day 8 after treatment for 7 days; format: in vivo
Experimental: Method: Fresh mice skin was treated once daily and stretched between the two ends of the tensile machine with a load of 100 kg with a stretching speed of 5 mm/min. (FIG. 9).

[5] = test system: IMQ-induced psoriasis in Balb/c mice; test: Histopathology (H&E staining) of skin, IMQ-induced psoriasis model; format: in vivo; conditions: 0.625% preparation; comparable to clobetasol propionate cream
Experimental: As a part of the efficacy study, a histopathology study was performed to study the morphological observations of the skin of mice representative of the different treatment groups. At the end of experiment, skin samples of mice from each group were fixed in 4% paraformaldehyde and embedded in paraffin. From each paraffin block, 4 μm thick sections were made and mounted on the glass slides. The sections were stained by haematoxylin and eosin and images were taken and evaluated.

[6] = test system: surgical incision wound on rabbit skin; test: Incisional wound healing in rabbit, topical cream; format: in vivo, New Zealand rabbits; conditions: 2.5% in vehicle
From the text: In this study, New Zealand rabbits weighing between 2.0-2.5 kg body weight were used and divided into two groups;
Control Group: Treated with the vehicle alone.
Test Group: Treated with Compound 1 (2.5%) prepared in the vehicle.
Para vertebral straight incisions of 2 cm length each were made through the entire thickness of the skin on either side of the vertebral column with the help of a sharp scalpel. After complete haemostasis, the wound was closed by means of interrupted sutures placed at equidistance points about 1 cm apart (See FIG. 6). Animals were treated once daily from day 0 to day 14 post-wounding day. Images were taken daily during the study period. Sutures were removed on day 7 and observed for wound closure.

[7] = test system: IMQ-induced psoriasis in Balb/c mice; test: IMQ-induced psoriasis in Balb/c mice, PASI scoring; format: in vivo; conditions: topical 12 h after IMQ, day 1 to 6
Experimental: (§1) The effect of topical administration of Compound 1 for the treatment of psoriasis was tested in this animal study. In this study, typical features of psoriasis, namely erythema, scaling, and skin thickness, were induced by the application of 5% w/w imiquimod (IMQ) cream on the dorsal skin of Balb/c mice over a period of 6 consecutive days. Animals that developed psoriasis-like symptoms were used for studying the efficacy of the Compound 1 prepared in a vehicle (as described above). In this study, male Balb/c mice (aged 6 to 8 weeks) were used. The animals were divided into 8 groups consisting of 10 animals in each group as follows:
Animals in this group were topically treated with 62.5 mg of commercially available imiquimod cream (5%) on the shaved back for 6 consecutive days (day 1 to 6 of study) at a specific time in the morning. This negative control group represents the typical psoriatic model induced by imiquimod 5% (IMQ). […]
Psoriatic area and severity index (PASI) scoring was analyzed to determine the efficacy of compositions containing a Compound 1 with appropriate controls as part of the study. The severity of inflammation of the skin was evaluated by an objective scoring system based on the clinical PASI scores. Erythema (0-4) and scaling (0-4) were scored independently where, 0-none; 1-slight; 2-moderate; 3-marked; 4-very marked. […]

[8] = test system: surgical incisional wound in diabetic (db/db) mice; test: Incisional wound healing in diabetic (db/db) mice, with or without SIRT1 inhibitor EX-527; format: in vivo; conditions: Group 12, 0.625% in vehicle, topical once daily for 7 days
From the text: In this study, mice of db/db strain (age: 12 weeks) were used. The animals were divided into four groups: • Group 11: Mice control treated with the vehicle alone. • Group 12 Mice treated with Compound 1 (0.625%) prepared in the vehicle. • Group 13 Mice treated with Compound 1 (0.625%) and EX-527 (0.025%) in the • vehicle. • Group 14: Mice treated with EX-527 (0.025%) in the vehicle.
Para vertebral straight incisions of 2 cm length and 1 mm depth each were made through the entire thickness of the skin, on either side of the vertebral column with the help of a sharp scalpel. After complete haemostasis, the wound was closed by means of interrupted sutures placed at equidistance points about 1 cm apart (See FIG. 8) All the groups were treated once daily for 7 days with the respective test and control preparations. Images of the wound area were taken on each day of the study by photographs and Doppler imaging. The wound area was measured using a transparent tracing sheet before and during the treatment to measure the wound closure at every 4 day interval.

[9] = test system: IL-23; test: IL-23 level in skin homogenate by ELISA, IMQ-induced psoriasis model; format: in vivo, Balb/c mice; conditions: day 7, ELISA
Experimental: as §1
An IMQ-induced psoriasis model reproduces biochemical and histopathological parameters characteristic of human psoriatic lesions. Topical application of the IMQ cream increased levels of cytokines including IL-23 and IL-17 in the treated skin tissues. The animals were euthanized on day 7. Spleen, liver and skin tissues were collected from all the animals Spleen and liver tissues were weighed. IL-17 and IL-23 levels were measured by ELISA using a commercially available kit. The skin homogenates obtained from mice of different groups were analyzed using ELISA for quantification of IL-17 and IL-23 levels as the selected interleukins are the typical inflammatory markers of psoriasis.

O=c1ccc2cc(O)c(O)cc2o1 [Compound 2, 6,7-dihydroxycoumarin, reference compound]
% of Wound healing ([1]; 2.5% in vehicle cream): 90%
Wound healing observed animals in a group ([1]; 2.5% in vehicle cream): 4
Serum levels of hepatic enzyme markers ALT and AST [2]: lower serum levels
Wound healing observed animals in a group on day 10 ([3]; 2.5% in vehicle cream): 0
% of Wound healing ([3]; 2.5% in vehicle cream): 0%
Day of wound closure ([3]; Group 2, 2.5% in vehicle, topical): ≤ 26 days

O=c1cc(CCCCCCCC[P+](c2ccccc2)(c2ccccc2)c2ccccc2)c2cc(O)c(O)cc2o1.[Br-] [Compound 1]
% of Wound healing ([1]; 0.625% in vehicle cream): 90%
Wound healing observed animals in a group ([1]; 0.625% in vehicle cream): 4
% of Wound healing ([1]; 1.25% in vehicle cream): 90%
Wound healing observed animals in a group ([1]; 1.25% in vehicle cream): 4
% of Wound healing ([1]; 2.5% in vehicle cream): 100%
Wound healing observed animals in a group ([1]; 2.5% in vehicle cream): 5
Tensile strength (N) ([4]; 0.625%): 55.33 ± 1.7 N
Histopathological amelioration of IMQ-induced psoriasis (skin and ear) [5]: ameliorated more
Time of faster surgical wound healing versus Control Group ([6]; topical once daily day 0 to day 14): ≤ 8 days
Surgical scar ([6]; topical once daily, compared to Control Group): No surgical scar was observed
PASI scores over the treatment period ([7]; 0.313% in vehicle): declines in PASI scores
PASI scores over the treatment period ([7]; 0.625% in vehicle): better declines in PASI scores
Time to complete healing of the incisional wound [8]: ≤ 7 days
Wound healing observed animals in a group on day 10 ([3]; 0.625% in vehicle cream): 5
% of Wound healing ([3]; 0.625% in vehicle cream): 100%
Wound healing observed animals in a group on day 10 ([3]; 1.25% in vehicle cream): 4
% of Wound healing ([3]; 1.25% in vehicle cream): 90%
Wound healing observed animals in a group on day 10 ([3]; 2.5% in vehicle cream): 4
% of Wound healing ([3]; 2.5% in vehicle cream): 90%
Day of complete closure of the wound ([3]; Groups 3-5, 0.625%, 1.25% and 2.5% in vehicle, topical): ≤ 10 days
IL-23 levels in skin tissue compared to the negative control ([9]; 0.313% in vehicle): decline in IL-23 levels
IL-23 levels in skin tissue compared to the negative control ([9]; 0.625% in vehicle): decline in IL-23 levels

NC(=O)C1CCCc2c1[nH]c1ccc(Cl)cc21 (centres unmarked) [EX527, 6-chloro-2,3,4,9-tetrahydro-1H-carbazole-1-carboxamide, reference compound]
Tensile strength (N) ([4]; 0.025%): 6.03 ± 2.51 N
